{"source": "patent US20110071150A1", "about": "(priority 2009, published 2011)"}
{"system": "Jurkat IL-2 Production", "assay": "Jurkat IL-2 Production Assay", "type": "cell-based", "settings": "Homo sapiens, Jurkat cell (ATCC), 18-20 h incubation, PHA 5 μg/mL with 1% FBS, or PMA/Ionomycin with 30% FBS (table does not say which)", "procedure": "Jurkat IL-2 Production Assay\nCell: Jurkat cell (ATCC) was grown in RPMI 1640 with 10% FBS and 1% penicillin/streptomycin. The cell density was kept at 1.2-1.8×10^6/mL in culture flask before seeding into culture plate, and the cell density in the plate was 0.5×10^6/[…]/well.\nCulture media: RPMI 1640 with 1% FBS or 30% FBS for high serum assay.\nTest compound: serial dilution was done in 100% DMSO, and intermediate dilution was done with RPMI 1640 medium with 1% FBS. The DMSO final concentration in culture well was 0.25%.\nStimulant: PHA (Sigma#L9017-10MG) was used for the assay with 1% FBS in culture medium, and added after 10 minutes exposure of cell to compound/DMSO. The PHA final concentration in culture well was 5 μg/mL. PMA (Sigma# P-8139 5MG)/Ionomycin (Sigma# 10634-5MG) was used for the assay with 30% FBS in culture medium, and added at same time point as the 1% FBS culture assay. The final concentration of PMA was 50 ng/mL, and Ionomycin final concentration was 500 ng/mL.\nIncubation: at 37° C. with 5% CO2 and 95% humidity for 18 h˜20 h.\nIC50: IC50 was calculated with the data analysis software XLfit4, General Pharmacology model 251.", "units": {"IC50": "nM"}}
{"smiles": "CCn1nc(-c2cccnc2)cc1-c1ccc2[nH]c(-c3ccccc3C)cc2c1", "note": "[Example 80, 5-(2-Ethyl-5-pyridin-3-yl-2H-pyrazol-3-yl)-2-o-tolyl-1H-indole]", "IC50": 91}
{"smiles": "Cn1nc(-c2ccccn2)cc1-c1ccc2[nH]c(-c3ccccc3Cl)cc2c1", "note": "[Example 81, 2-(2-Chloro-phenyl)-5-(2-methyl-5-pyridin-2-yl-2H-pyrazol-3-yl)-1H-indole]", "IC50": 501}
{"smiles": "Cn1nc(-c2ccccn2)cc1-c1ccc2[nH]c(-c3cc(F)ccc3Cl)cc2c1", "note": "[Example 82, 2-(2-Chloro-5-fluoro-phenyl)-5-(2-methyl-5-pyridin-2-yl-2H-pyrazol-3-yl)-1H-indole]", "IC50": 367}
{"smiles": "Cn1nc(-c2ccccn2)cc1-c1ccc2[nH]c(-c3ccc(F)cc3Cl)cc2c1", "note": "[Example 83, 2-(2-Chloro-4-fluoro-phenyl)-5-(2-methyl-5-pyridin-2-yl-2H-pyrazol-3-yl)-1H-indole]", "IC50": 358}
{"smiles": "Cn1nc(-c2cccnc2)cc1-c1ccc2[nH]c(-c3cccc(F)c3F)cc2c1", "note": "[Example 84, 2-(2,3-Difluoro-phenyl)-5-(2-methyl-5-pyridin-3-yl-2H-pyrazol-3-yl)-1H-indole]", "IC50": 399}
{"smiles": "Cn1nc(-c2cccnc2)cc1-c1ccc2[nH]c(-c3cccc(Cl)c3Cl)cc2c1", "note": "[Example 85, 2-(2,3-Dichloro-phenyl)-5-(2-methyl-5-pyridin-3-yl-2H-pyrazol-3-yl)-1H-indole]", "IC50": 149}
{"smiles": "Cn1nc(-c2cccnc2)cc1-c1ccc2[nH]c(-c3ccc(F)cc3Cl)cc2c1", "note": "[Example 86, 2-(2-Chloro-4-fluoro-phenyl)-5-(2-methyl-5-pyridin-3-yl-2H-pyrazol-3-yl)-1H-indole]", "IC50": 118}
{"smiles": "Cn1nc(-c2cccnc2)cc1-c1ccc2[nH]c(-c3cc(Cl)ccc3Cl)cc2c1", "note": "[Example 87, 2-(2,5-Dichloro-phenyl)-5-(2-methyl-5-pyridin-3-yl-2H-pyrazol-3-yl)-1H-indole]", "IC50": 135}
{"smiles": "COC(=O)c1ccc(-c2ccc3[nH]c(-c4c(F)cccc4F)cc3c2)c(Cl)c1", "note": "[Example 88, 4-[2-(2,6-Difluoro-phenyl)-1H-indol-5-yl]-3-chloro-benzoic acid methyl ester]", "IC50": 908}
{"smiles": "Cc1cc(C(N)=O)ccc1-c1ccc2[nH]c(-c3c(F)cccc3F)cc2c1", "note": "[Example 89, 4-[2-(2,6-Difluoro-phenyl)-1H-indol-5-yl]-3-methyl-benzamide]", "IC50": 451}
{"smiles": "COc1ccc(-c2ccc3[nH]c(-c4c(F)cccc4F)cc3c2)c(OC)c1", "note": "[Example 90, 2-(2,6-Difluoro-phenyl)-5-(2,4-dimethoxy-phenyl)-1H-indole]", "IC50": 177}
{"smiles": "Cc1cc(F)ccc1-c1ccc2[nH]c(-c3c(F)cccc3F)cc2c1", "note": "[Example 91, 2-(2,6-Difluoro-phenyl)-5-(4-fluoro-2-methyl-phenyl)-1H-indole]", "IC50": 456}
{"smiles": "Fc1cccc(F)c1-c1cc2cc(-c3ccc(C(F)(F)F)cc3C(F)(F)F)ccc2[nH]1", "note": "[Example 92, 5-(2,4-Bis-trifluoromethyl-phenyl)-2-(2,6-difluoro-phenyl)-1H-indole]", "IC50": 188}
{"smiles": "COc1ncc(-c2ccc3[nH]c(-c4c(F)cccc4F)cc3c2)c(OC)n1", "note": "[Example 93, 2-(2,6-Difluoro-phenyl)-5-(2,4-dimethoxy-pyrimidin-5-yl)-1H-indole]", "IC50": 921}
{"smiles": "Fc1cccc(F)c1-c1cc2cc(-c3ccc(C(F)(F)F)cc3Cl)ccc2[nH]1", "note": "[Example 94, 5-(2-Chloro-4-trifluoromethyl-phenyl)-2-(2,6-difluoro-phenyl)-1H-indole]", "IC50": 175}
{"smiles": "COc1ccc(-c2ccc3[nH]c(-c4c(F)cccc4F)cc3c2)c(OC)n1", "note": "[Example 95, 2-(2,6-Difluoro-phenyl)-5-(2,6-dimethoxy-pyridin-3-yl)-1H-indole]", "IC50": 994}
{"smiles": "CS(=O)(=O)c1ccc(-c2ccc3[nH]c(-c4c(F)cccc4F)cc3c2)c(C(F)(F)F)c1", "note": "[Example 96, 2-(2,6-Difluoro-phenyl)-5-(4-methanesulfonyl-2-trifluoromethyl-phenyl)-1H-indole]", "IC50": 177}
{"smiles": "CN(C)S(=O)(=O)c1ccc(-c2ccc3[nH]c(-c4c(F)cccc4F)cc3c2)c(C(F)(F)F)c1", "note": "[Example 97, 4-[2-(2,6-Difluoro-phenyl)-1H-indol-5-yl]-N,N-dimethyl-3-trifluoromethyl-benzenesulfonamide]", "IC50": 72}
{"smiles": "COc1ccc(-c2ccc3[nH]c(-c4c(F)cccc4F)cc3c2)c(Cl)c1", "note": "[Example 98, 5-(2-Chloro-4-methoxy-phenyl)-2-(2,6-difluoro-phenyl)-1H-indole]", "IC50": 279}
{"smiles": "COc1ccc(-c2ccc3[nH]c(-c4c(F)cccc4F)cc3c2)c(C(F)(F)F)c1", "note": "[Example 99, 2-(2,6-Difluoro-phenyl)-5-(4-methoxy-2-trifluoromethyl-phenyl)-1H-indole]", "IC50": 344}
{"smiles": "Cc1cc(OC(F)(F)F)ccc1-c1ccc2[nH]c(-c3c(F)cccc3F)cc2c1", "note": "[Example 100, 2-(2,6-Difluoro-phenyl)-5-(2-methyl-4-trifluoromethoxy-phenyl)-1H-indole]", "IC50": 307}
{"smiles": "COc1ccc(-c2ccc3[nH]c(-c4c(F)cccc4F)cc3c2)c(C)n1", "note": "[Example 101, 2-(2,6-Difluoro-phenyl)-5-(6-methoxy-2-methyl-pyridin-3-yl)-1H-indole]", "IC50": 593}
{"smiles": "Cc1cc(-c2ncco2)ccc1-c1ccc2[nH]c(-c3c(F)cccc3F)cc2c1", "note": "[Example 102, 2-(2,6-Difluoro-phenyl)-5-(2-methyl-4-oxazol-2-yl-phenyl)-1H-indole]", "IC50": 74}
{"smiles": "COc1cc(-c2ncco2)ccc1-c1ccc2[nH]c(-c3c(F)cccc3F)cc2c1", "note": "[Example 103, 2-(2,6-Difluoro-phenyl)-5-(2-methoxy-4-oxazol-2-yl-phenyl)-1H-indole]", "IC50": 176}
{"smiles": "Cc1cc(N2CCNCC2)ncc1-c1ccc2[nH]c(-c3c(F)cccc3F)cc2c1", "note": "[Example 104, 2-(2,6-Difluoro-phenyl)-5-(4-methyl-6-piperazin-1-yl-pyridin-3-yl)-1H-indole]", "IC50": 178}
{"smiles": "Cc1sc(-c2ccnnc2)nc1-c1ccc2[nH]c(-c3c(F)cccc3F)cc2c1", "note": "[Example 105, 2-(2,6-Difluoro-phenyl)-5-(5-methyl-2-pyridazin-4-yl-thiazol-4-yl)-1H-indole]", "IC50": 664}
{"smiles": "Cc1sc(I)nc1-c1ccc2[nH]c(-c3c(F)cccc3F)cc2c1", "note": "[Example 106, 2-(2,6-Difluoro-phenyl)-5-(2-iodo-5-methyl-thiazol-4-yl)-1H-indole]", "IC50": 488}
{"smiles": "Cn1nc(-c2cc[nH]n2)cc1-c1ccc2[nH]c(-c3c(F)cccc3F)cc2c1", "note": "[Example 108, 2-(2,6-Difluoro-phenyl)-5-(1-methyl-1H,1′H-[3,3]bipyrazolyl-5-yl)-1H-indole]", "IC50": 601}
{"smiles": "Cn1nc(-c2ncco2)cc1-c1ccc2[nH]c(-c3c(F)cccc3F)cc2c1", "note": "[Example 110, 2-(2,6-Difluoro-phenyl)-5-(2-methyl-5-oxazol-2-yl-2H-pyrazol-3-yl)-1H-indole]", "IC50": 190}
{"smiles": "Cn1nc(Br)cc1-c1ccc2[nH]c(-c3c(F)cccc3F)cc2c1", "note": "[Example 111, 5-(5-Bromo-2-methyl-2H-pyrazol-3-yl)-2-(2,6-difluoro-phenyl)-1H-indole]", "IC50": 318}
{"smiles": "COc1cc(C)c(-c2ccc3[nH]c(-c4ccccc4F)cc3c2)cn1", "note": "[Example 112, 2-(2-Fluoro-phenyl)-5-(6-methoxy-4-methyl-pyridin-3-yl)-1H-indole]", "IC50": 843}
{"smiles": "COc1cc(C)c(-c2ccc3[nH]c(-c4c(F)cccc4F)cc3c2)cn1", "note": "[Example 113, 2-(2,6-Difluoro-phenyl)-5-(6-methoxy-4-methyl-pyridin-3-yl)-1H-indole]", "IC50": 60}
{"smiles": "Cn1nc(-c2cccnc2)nc1-c1ccc2[nH]c(-c3c(F)cccc3F)cc2c1", "note": "[Example 114, 2-(2,6-Difluoro-phenyl)-5-(2-methyl-5-pyridin-3-yl-2H-[1,2,4]triazol-3-yl)-1H-indole]", "IC50": 39}
{"smiles": "Cc1cc(-c2nnco2)ccc1-c1ccc2[nH]c(-c3c(F)cccc3Cl)cc2c1", "note": "[Example 115, 2-(2-Chloro-6-fluoro-phenyl)-5-(2-methyl-4-[1,3,4]oxadiazol-2-yl-phenyl)-1H-indole]", "IC50": 38}
{"smiles": "Cn1nc(-c2cccnc2)nc1-c1ccc2[nH]c(-c3c(F)cccc3Cl)cc2c1", "note": "[Example 116, 2-(2-Chloro-6-fluoro-phenyl)-5-(2-methyl-5-pyridin-3-yl-2H-[1,2,4]-triazol-3-yl)-1H-indole]", "IC50": 12}
{"smiles": "COC(=O)c1cc(C)c(-c2ccc3[nH]c(-c4c(F)cccc4Cl)cc3c2)cn1", "note": "[Example 117, 5-[2-(2-Chloro-6-fluoro-phenyl)-1H-indol-5-yl]-4-methyl-pyridine-2-carboxylic acid methyl ester]", "IC50": 19}
{"smiles": "CNC(=O)c1cc(C)c(-c2ccc3[nH]c(-c4c(F)cccc4Cl)cc3c2)cn1", "note": "[Example 118, 5-[2-(2-Chloro-6-fluoro-phenyl)-1H-indol-5-yl]-4-methyl-pyridine-2-carboxylic acid methylamide]", "IC50": 180}
{"smiles": "Cc1cc(-c2nnco2)ncc1-c1ccc2[nH]c(-c3c(F)cccc3Cl)cc2c1", "note": "[Example 119, 2-(2-Chloro-6-fluoro-phenyl)-5-(4-methyl-6-[1,3,4]oxadiazol-2-yl-pyridin-3-yl)-1H-indole]", "IC50": 14}
{"smiles": "Cc1nnc(-c2cc(C)c(-c3ccc4[nH]c(-c5c(F)cccc5Cl)cc4c3)cn2)o1", "note": "[Example 120, 2-(2-Chloro-6-fluoro-phenyl)-5-[4-methyl-6-(5-methyl-[1,3,4]oxadiazol-2-yl)-pyridin-3-yl]-1H-indole]", "IC50": 19}
